Results from US11096985B2, “Antimicrobial peptides, their variants and uses” (priority 2015, dated 2021).
Where a SMILES comes first, the peptide text is derived from it. [ ]: non-standard residue; d: D form.

Tests used:
[1] = test system: clinical strains of Proteus mirabilis; assay: MIC, clinical strains of Proteus mirabilis; assay type: cell-based; set-up: unit: µg/mL; conditions: microdilution, Muller Hinton broth-cation adjusted, 0.02% BSA, 0.2% acetic acid
Protocol: (§1) Minimum inhibition concentrations (MICs) were determined against Escherichia coli (ATCC 25922), Staphylococcus aureus (ATCC 25923), Klebsiella pneumoniae (ATCC 10031) and Pseudomonas aeruginosa (ATCC 27853). Also clinical strains of E. coli, K. pneumoniae, E. cloacae, P. aeruginosa, Serratia marcescens, Proteus mirabilis, S. pneumoniae, Acinetobacter baumannii, A. johnsonii and S. aureus were used for MICs assays. Additionally, clinical strains of yeast including Candida albicans, C. glabrata, C. parapsilosis and C. quillermondiae were used. The susceptibility of these microorganisms to Chain peptides were determined using micro broth dilution assay. Colonies of the respective microorganism from Muller Hinton (MH) agar plates incubated overnight were suspended in MH broth media and final concentration of microorganism was adjusted to 5.0×10^5 cfu/ml. An aliquot of 10 μl of each Chain peptide, or gentamicin, tetracycline as reference antibiotics were added in differing concentrations along with 90 μl of bacterial suspension to 96 well polypropylene plates and incubated at 37° C. for 20 to 24 hours. Concentrations of Chain peptides and reference antibiotics ranged from 0.125 to 128 μg/ml and the MICs were recorded as the lowest concentration with no visual growth of bacteria. Similarly, antifungal MICs were tested in Potato dextrose broth.
(§2) Clinical strains of yeasts including Candida albicans, C. glabrata, C. parapsilosis and C. quillermondiae were also tested with the 12 Chain peptides. The minimum inhibitory concentration (MICs) varied between these peptides and are presented in Tables 4a, 4b, 4c and 5a, 5b, 5c. Peptides Chain 105, 201 and 308 are broad spectrum antimicrobials with MICs between 0.5-32 μg/ml against all the bacteria and yeasts tested, except Serratia marcescens and Proteus mirabilis, against which the MICs were between 64-128 μg/ml. Peptide Chain 306 has narrow spectrum activity against E.coli at 1 μg/ml and for the rest of the bacterial strains at >32 μg/ml (FIG. 10).

[2] = test system: clinical strains of Pseudomonas aeruginosa; assay: MIC, clinical strains of P. aeruginosa; assay type: cell-based; set-up: unit: μg/ml; conditions: microdilution, Muller Hinton broth-cation adjusted, 0.02% BSA, 0.2% acetic acid
Protocol: as §1, §2

[3] = test system: clinical strains of C. parapsilosis; assay: MIC, clinical yeast strains, C. parapsilosis; assay type: cell-based, Candida parapsilosis; set-up: unit: μg/ml
In short: (§3)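 Broth microdilution in Mueller Hinton broth, inoculum adjusted to 5.0×10^5 cfu/ml, peptide tested at 0.125 to 128 μg/ml and incubated at 37° C. for 20 to 24 hours. MIC was the lowest concentration with no visible growth. Yeasts were tested in potato dextrose broth.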

[4] = test system: clinical strains of C. glabrata; assay: MIC, clinical yeast strains, C. glabrata; assay type: cell-based, Candida glabrata; set-up: unit: μg/ml
In short: as §3

[5] = test system: clinical strains of Candida albicans; assay: MIC, clinical yeast strains, Candida albicans; assay type: cell-based; set-up: unit: μg/ml
In short: as §3

[6] = test system: clinical strains of Streptococcus pneumoniae; assay: MIC, clinical strains of Streptococcus pneumoniae; assay type: cell-based; set-up: unit: µg/mL; conditions: microdilution, Muller Hinton broth-cation adjusted, 0.02% BSA, 0.2% acetic acid
Protocol: as §1, §2

[7] = test system: clinical strains of Escherichia coli; assay: MIC, clinical strains of E. coli; assay type: cell-based; set-up: unit: μg/ml; conditions: microdilution, Muller Hinton broth-cation adjusted, 0.02% BSA, 0.2% acetic acid
Protocol: as §1, §2

[8] = test system: clinical strains of Klebsiella pneumoniae; assay: MIC, clinical strains of K. pneumoniae; assay type: cell-based; set-up: unit: μg/ml; conditions: microdilution, Muller Hinton broth-cation adjusted, 0.02% BSA, 0.2% acetic acid
Protocol: as §1, §2

[9] = test system: clinical strains of C. quillermondiae; assay: MIC, clinical yeast strains, C. quillermondiae; assay type: cell-based; conditions: C. quillermondiae clinical yeast strain 1
In short: as §3

[10] = test system: clinical strains of Serratia marcescens; assay: MIC, clinical strains of Serratia marcescens; assay type: cell-based; set-up: unit: µg/mL; conditions: microdilution, Muller Hinton broth-cation adjusted, 0.02% BSA, 0.2% acetic acid
Protocol: as §1, §2

[11] = test system: clinical strains of Staphylococcus aureus; assay: MIC, clinical strains of S. aureus; assay type: cell-based; set-up: unit: μg/ml; conditions: microdilution, Muller Hinton broth-cation adjusted, 0.02% BSA, 0.2% acetic acid
Protocol: as §1, §2

[12] = test system: clinical strains of Enterobacter cloacae; assay: MIC, clinical strains of Enterobacter cloacae; assay type: cell-based; set-up: unit: μg/ml; conditions: microdilution, Muller Hinton broth-cation adjusted, 0.02% BSA, 0.2% acetic acid
Protocol: as §1, §2

Measured: Minimum inhibitory concentration

CC(C)C[C@@H](NC(=O)[C@H](N)CCCCN)C(=O)N[C@H](CCCCN)C(=O)N[C@H](Cc1c[nH]c2ccccc12)C(=O)N[C@H](Cc1ccccc1)C(=O)N[C@H](Cc1c[nH]c2ccccc12)C(=O)N[C@H](CC(C)C)C(=O)N[C@H](Cc1ccccc1)C(=O)N[C@H](CCCCN)C(=O)N[C@H](CCCCN)C(=O)N[C@H](CCCNC(=N)N)C(=O)O [Chain311D] (H-[dK][dL][dK][dW][dF][dW][dL][dF][dK][dK][dR]-OH)
64: [4]; C. glabrata clinical yeast strain 4
2: [7]; Escherichia coli clinical strain 1 | [7]; Escherichia coli clinical strain 2 | [12]; Enterobacter cloacae clinical strain 5
8: [2]; Pseudomonas aeruginosa clinical strain 2 | [2]; Pseudomonas aeruginosa clinical strain 4 | [3]; C. parapsilosis clinical yeast strain 2 | [3]; C. parapsilosis clinical yeast strain 3 | [3]; C. parapsilosis clinical yeast strain 4 | [4]; C. glabrata clinical yeast strain 3 | [5]; Candida albicans clinical yeast strain 1 | [5]; Candida albicans clinical yeast strain 2 | [5]; Candida albicans clinical yeast strain 3 | [6]; Streptococcus pneumoniae clinical strain 2 | [6]; Streptococcus pneumoniae clinical strain 5 | [8]; Klebsiella pneumoniae clinical strain 1 | [8]; Klebsiella pneumoniae clinical strain 2 | [8]; Klebsiella pneumoniae clinical strain 4
1: [7]; Escherichia coli clinical strain 3 | [7]; Escherichia coli clinical strain 5 | [11]; Staphylococcus aureus clinical strain 1 | [11]; Staphylococcus aureus clinical strain 2 | [11]; Staphylococcus aureus clinical strain 3 | [11]; Staphylococcus aureus clinical strain 4 | [11]; Staphylococcus aureus clinical strain 5
>128: [1]; Proteus mirabilis clinical strain 1 | [1]; Proteus mirabilis clinical strain 4 | [1]; Proteus mirabilis clinical strain 5 | [10]; Serratia marcescens clinical strain 1 | [10]; Serratia marcescens clinical strain 2 | [10]; Serratia marcescens clinical strain 3 | [10]; Serratia marcescens clinical strain 4 | [10]; Serratia marcescens clinical strain 5
16: [2]; Pseudomonas aeruginosa clinical strain 1 | [2]; Pseudomonas aeruginosa clinical strain 3 | [3]; C. parapsilosis clinical yeast strain 1 | [4]; C. glabrata clinical yeast strain 1 | [4]; C. glabrata clinical yeast strain 2 | [5]; Candida albicans clinical yeast strain 4 | [5]; Candida albicans clinical yeast strain 5 | [6]; Streptococcus pneumoniae clinical strain 1 | [6]; Streptococcus pneumoniae clinical strain 3
0.5: [7]; Escherichia coli clinical strain 4
128: [1]; Proteus mirabilis clinical strain 2 | [1]; Proteus mirabilis clinical strain 3
4: [2]; Pseudomonas aeruginosa clinical strain 5 | [6]; Streptococcus pneumoniae clinical strain 4 | [8]; Klebsiella pneumoniae clinical strain 3 | [8]; Klebsiella pneumoniae clinical strain 5 | [9] | [12]; Enterobacter cloacae clinical strain 1 | [12]; Enterobacter cloacae clinical strain 2 | [12]; Enterobacter cloacae clinical strain 3 | [12]; Enterobacter cloacae clinical strain 4
